Where a SMILES comes first, the peptide text is derived from it.
Tested on: HEK293T cells
Test: Cytotoxicity assay (CCK-8)
Type: cell-based
Details: 24 h; for Cytotoxicity within the concentration range detected (in words): peptide 1-50 μM, CCK-8, OD450, n = 5; for Cytotoxicity at 50 μM (in words): CCK-8, n = 5, compared with 0 μM
Method: HEK293T cells were cultured in DMEM (10% FBS, 1% penicillin–streptomycin solution) in a 37 °C, 5% CO2 cell culture incubator until reaching the logarithmic growth phasein. As previously described, cells were seeded into a 96-well plate at 100 μL per well and pre-incubated for 48 h. After removing the medium, 10 μL of antimicrobial peptide solutions (1, 2, 5, 10, 20, and 50 μM) were added to each well with five replicate wells per concentration. The HEK293T cells cultured with DMEM (0 μM peptide) constituted the untreated group and plates with no cells were as blank group. Plates were then cultured for 24 h. Subsequently, 10 μL of CCK-8 solution was added to each well and incubated for 3 h under the same conditions using the Cell Counting Kit-8 (CCK-8, K1018, APE×BIO, Technology LLC, Houston, TX, USA). Absorbance at 450 nm was measured using a microplate reader. Cell viability was calculated using the following formula: Cell viability (%) = [Treated group OD (450) − Blank group OD (450)]/[Untreated group OD (450) − Blank group OD (450)] × 100%.

Row | Compound | Cytotoxicity within the concentration range detected (in words) | Cytotoxicity at 50 μM (in words) | other results
1 | KVWQRVKVKML [P3, peptide … derived from Crassostrea gigas mucous proteins, selected by machine learning] | no cytotoxicity | – | –
2 | CC[C@H](C)[C@H](NC(=O)[C@H](CCCCN)NC(=O)[C@H](Cc1ccc(O)cc1)NC(=O)[C@H](CCCCN)NC(=O)[C@H](CCCCN)NC(=O)[C@H](Cc1ccccc1)NC(=O)[C@H](CCCNC(=N)N)NC(=O)[C@H](CC(N)=O)NC(=O)[C@H](CCSC)NC(=O)[C@@H](NC(=O)[C@H](CC(C)C)NC(=O)[C@H](Cc1ccc(O)cc1)NC(=O)[C@@H](NC(=O)[C@H](C)NC(=O)[C@H](CCCNC(=N)N)NC(=O)[C@H](CCSC)NC(=O)[C@H](CCCCN)NC(=O)[C@H](CCCCN)NC(=O)[C@H](C)NC(=O)[C@H](CCCNC(=N)N)NC(=O)[C@H](CCCNC(=N)N)NC(=O)[C@@H](N)CCCNC(=N)N)[C@@H](C)CC)[C@@H](C)CC)C(=O)O [P4] (H-RRRAKKMRAIYLIMNRFKKYKI-OH; N-terminus and C-terminus assumed) | – | significant cell death | –
3 | FAKLLLRLPALR [P1, peptide … derived from Crassostrea gigas mucous proteins, selected by machine learning] | no cytotoxicity | – | –
4 | CC(C)C[C@H](NC(=O)[C@@H](N)CC(C)C)C(=O)N[C@@H](CCCNC(=N)N)C(=O)N[C@@H](CCCNC(=N)N)C(=O)N[C@@H](CCCCN)C(=O)N[C@@H](Cc1ccccc1)C(=O)N[C@@H](Cc1ccccc1)C(=O)N[C@@H](Cc1ccccc1)C(=O)O [S2] (H-LLRRKFFF-OH; N-terminus and C-terminus assumed) | – | – | Cytotoxicity at 10 μM (in words) (10 μM, CCK-8, n = 5): significant cytotoxic effects; Cell viability (at 10, 20 and 50 μM, CCK-8, n = 5): ≤ 75%
5 | WKQIKFYVYNRILKKRK [P2, peptide … derived from Crassostrea gigas mucous proteins, selected by machine learning] | – | significant cell death | –
6 | LLFRRRLL [S1] | – | significant cell death | –
